Measured values from PMC6691788, “Design and synthesis of phthalazine-based compounds as potent anticancer agents with potential antiangiogenic activity via VEGFR-2 inhibition” (Journal of Enzyme Inhibition and Medicinal Chemistry, 2019).

Legend:
Experiment in all cases: NCI 60 cell panel SRB screen
MDA-MB-468 = type: cell-based; conditions: Homo sapiens; for activity at 10 µM: MDA-MB-468, MDA-MBA-468, single dose 10 μM, read-out: percent cell growth promotion; for GI50 / IC (TGI) / CC50: MDA-MB-468, 5 log dose; for CC50: 48 h, read-out: LC50 (the source's name)
Procedure, shortened: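 Cells in RPMI 1640 with 5% FBS, preincubated 24 h, then exposed to five concentrations for 48 h at 37 °C. TCA fixation, SRB staining, absorbance at 515 nm; a time-zero plate allows GI50 (50% reduction in net protein gain), TGI and LC50 (50% loss versus start).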

OVCAR-3 = type: cell-based; conditions: Homo sapiens; for GI50 / IC (TGI) / CC50: OVCAR-3, 5 log dose; for CC50: 48 h, read-out: LC50 (the source's name); for activity at 10 µM: OVCAR-3, single dose 10 μM, read-out: percent cell growth promotion
KM12 = type: cell-based; conditions: Homo sapiens; for GI50 / IC (TGI) / CC50: KM12, 5 log dose; for CC50: 48 h, read-out: LC50 (the source's name); for activity at 10 µM: KM12, single dose 10 μM, read-out: percent cell growth promotion
HS 578T = type: cell-based; conditions: Homo sapiens; for GI50 / IC (TGI) / activity at 10 µM: Hs-578T; for IC (TGI): read-out: TGI; for activity at 10 µM: read-out: percent cell growth promotion; for CC50: HS 578T, 5 log dose, 48 h, read-out: LC50 (the source's name)
MDA-MB 231/ATCC = type: cell-based; conditions: Homo sapiens; for GI50 / CC50: MDA-MB-231; for IC (TGI): MDA-MB-231, read-out: TGI; for activity at 10 µM: MDA-MB-231, read-out: percent cell growth promotion; for CC50: MDA-MDA 231/ATCC, 5 log dose, 48 h, read-out: LC50 (the source's name)
CCRF-CEM = type: cell-based, human; conditions: for TGI / GI50 / CC50: 5 log dose; for GI50 / CC50 / activity at 10 µM: Homo sapiens; for CC50: 48 h, read-out: LC50 (the source's name); for activity at 10 µM: single dose 10 μM, read-out: percent cell growth promotion
OVCAR-5 = type: cell-based; conditions: Homo sapiens; for GI50 / IC (TGI) / CC50: OVCAR-5, 5 log dose; for CC50: 48 h, read-out: LC50 (the source's name); for activity at 10 µM: OVCAR-5, single dose 10 μM, read-out: percent cell growth promotion
HT29 = type: cell-based; conditions: Homo sapiens, HT-29; for GI50 / IC (TGI) / CC50: HT29, 5 log dose; for CC50: 48 h, read-out: LC50 (the source's name); for activity at 10 µM: HT29, single dose 10 μM, read-out: percent cell growth promotion
SK-MEL-5 = type: cell-based; conditions: Homo sapiens; for GI50: SK-MEL-5; for IC (TGI): SK-MEL-5, read-out: TGI; for activity at 10 µM: SK-MEL-5, read-out: percent cell growth promotion; for CC50: SK-MEL-5, 5 log dose, 48 h, read-out: LC50 (the source's name)
OVCAR-4 = type: cell-based; conditions: Homo sapiens; for GI50 / IC (TGI) / CC50: OVCAR-4, 5 log dose; for CC50: 48 h, read-out: LC50 (the source's name); for activity at 10 µM: OVCAR-4, single dose 10 μM, read-out: percent cell growth promotion
UACC-62 = type: cell-based; conditions: for GI50 / activity at 10 µM / CC50: Homo sapiens; for GI50: UACC-62; for activity at 10 µM: UACC-62, read-out: percent cell growth promotion; for CC50 / TGI: UACC-62, 5 log dose; for CC50: 48 h, read-out: LC50 (the source's name)
HCT-116 = type: cell-based; conditions: Homo sapiens; for GI50 / IC (TGI) / LC50 (lethal concentration 50%): HCT-116, 5 log dose; for LC50 (lethal concentration 50%): 48 h; for activity at 10 µM: HCT-116, single dose 10 μM, read-out: percent cell growth promotion
NCI-H460 = type: cell-based; conditions: Homo sapiens; for GI50 / IC (TGI) / LC50 (concentration causing 50% cell kill): NCI-H460, 5 log dose; for LC50 (concentration causing 50% cell kill): 48 h; for activity at 10 µM: NCI-H460, single dose 10 μM, read-out: percent cell growth promotion
TK-10 = type: cell-based, human; conditions: for activity at 10 µM: TK-10, single dose 10 μM, read-out: percent cell growth promotion
IGROV1 = type: cell-based; conditions: Homo sapiens, IGROV-1; for GI50 / IC (TGI) / CC50: IGROV1, 5 log dose; for CC50: 48 h, read-out: LC50 (the source's name); for activity at 10 µM: IGROV1, single dose 10 μM, read-out: percent cell growth promotion
LOX IMVI = type: cell-based; conditions: Homo sapiens; for CC50: 5 log dose, 48 h, read-out: LC50 (the source's name); for IC (TGI): read-out: TGI; for activity at 10 µM: read-out: percent cell growth promotion
SNB-75 = type: cell-based; conditions: Homo sapiens; for GI50 / IC (TGI) / LC50 (concentration killing 50% of cells): SNB-75, 5 log dose; for LC50 (concentration killing 50% of cells): 48 h; for activity at 10 µM: SNB-75, single dose 10 μM, read-out: percent cell growth promotion
T-47D = type: cell-based; conditions: Homo sapiens, T47D; for IC (TGI): read-out: TGI; for activity at 10 µM: read-out: percent cell growth promotion; for CC50: T-47D, 5 log dose, 48 h, read-out: LC50 (the source's name)

Clc1ccc(Nc2nnc(COc3ccccc3)c3ccccc23)cc1 [Compound 17a, N-(4-Chlorophenyl)-4-(phenoxymethyl)phthalazin-1-amine]
activity at 10 µM (MDA-MB-468): -16.9% | GI50 (MDA-MB-468): 1.49 µM | IC (TGI) (MDA-MB-468): 7.62 µM | CC50 (MDA-MB-468): > 25 µM | GI50 (OVCAR-3): 2.87 µM | IC (TGI) (OVCAR-3): 9.8 µM | CC50 (OVCAR-3): > 25 µM | activity at 10 µM (OVCAR-3): -35.1% | GI50 (KM12): 2.65 µM | IC (TGI) (KM12): 7.72 µM | CC50 (KM12): 22.4 µM | activity at 10 µM (KM12): 0.18% | GI50 (HS 578T): 2.58 µM | IC (TGI) (HS 578T): 10.5 µM | activity at 10 µM (HS 578T): 14.4% | CC50 (HS 578T): > 25 µM | GI50 (MDA-MB 231/ATCC): 1.28 µM | IC (TGI) (MDA-MB 231/ATCC): 6.9 µM | activity at 10 µM (MDA-MB 231/ATCC): 11.4% | CC50 (MDA-MB 231/ATCC): 24.8 µM | TGI (CCRF-CEM): 14.2 µM | GI50 (CCRF-CEM): 2.8 µM | CC50 (CCRF-CEM): > 25 µM | activity at 10 µM (CCRF-CEM): 1.06% | GI50 (OVCAR-5): 3.88 µM | IC (TGI) (OVCAR-5): 15.4 µM | CC50 (OVCAR-5): > 25 µM | activity at 10 µM (OVCAR-5): 23.1% | GI50 (HT29): 0.42 µM | IC (TGI) (HT29): 4.25 µM | CC50 (HT29): 17.4 µM | activity at 10 µM (HT29): 1.32% | GI50 (SK-MEL-5): 1.08 µM | IC (TGI) (SK-MEL-5): 4.56 µM | activity at 10 µM (SK-MEL-5): -96.1% | CC50 (SK-MEL-5): 10.8 µM | GI50 (OVCAR-4): 2.09 µM | IC (TGI) (OVCAR-4): > 25 µM | CC50 (OVCAR-4): > 25 µM | activity at 10 µM (OVCAR-4): 18.1% | GI50 (UACC-62): 1.24 µM | activity at 10 µM (UACC-62): -27.7% | CC50 (UACC-62): 17.5 µM | TGI (UACC-62): 5.69 µM | GI50 (HCT-116): 1.07 µM | IC (TGI) (HCT-116): 4.83 µM | LC50 (lethal concentration 50%) (HCT-116): 13.1 µM | activity at 10 µM (HCT-116): 1.21% | GI50 (NCI-H460): 2.7 µM | IC (TGI) (NCI-H460): 7.12 µM | LC50 (concentration causing 50% cell kill) (NCI-H460): 18.8 µM | activity at 10 µM (NCI-H460): 3.1% | activity at 10 µM (TK-10; Homo sapiens): -17.5% | GI50 (IGROV1): 1.14 µM | IC (TGI) (IGROV1): 6.37 µM | CC50 (IGROV1): > 25 µM | activity at 10 µM (IGROV1): 16.1% | GI50 (LOX IMVI): 1.29 µM | CC50 (LOX IMVI): 11.9 µM | IC (TGI) (LOX IMVI): 4.85 µM | activity at 10 µM (LOX IMVI): -62% | GI50 (SNB-75): 0.49 µM | IC (TGI) (SNB-75): 6.65 µM | LC50 (concentration killing 50% of cells) (SNB-75): > 25 µM | activity at 10 µM (SNB-75): 13.1% | GI50 (T-47D): 0.88 µM | IC (TGI) (T-47D): 8.44 µM | activity at 10 µM (T-47D): -5.86% | CC50 (T-47D): > 25 µM

Cc1nnc(Nc2ccc(NC(=O)Nc3ccc(Cl)cc3)cc2)c2ccccc12 [Compound 6e, 1–(4-Chlorophenyl)-3–(4-(4-methylphthalazin-1-ylamino)phenyl)urea]
activity at 10 µM (MDA-MB-468): 6.44% | GI50 (MDA-MB-468): 2.84 µM | IC (TGI) (MDA-MB-468): 7.43 µM | CC50 (MDA-MB-468): 36.2 µM | GI50 (OVCAR-3): 1.87 µM | IC (TGI) (OVCAR-3): 3.99 µM | CC50 (OVCAR-3): 8.47 µM | activity at 10 µM (OVCAR-3): 44.4% | GI50 (KM12): 1.99 µM | IC (TGI) (KM12): 4.53 µM | CC50 (KM12): 11.1 µM | activity at 10 µM (KM12): 14.1% | GI50 (HS 578T): 2.52 µM | IC (TGI) (HS 578T): 6.4 µM | activity at 10 µM (HS 578T): 3.43% | CC50 (HS 578T): > 100 µM | GI50 (MDA-MB 231/ATCC): 2.38 µM | IC (TGI) (MDA-MB 231/ATCC): 5.94 µM | activity at 10 µM (MDA-MB 231/ATCC): 23.1% | CC50 (MDA-MB 231/ATCC): 33.9 µM | TGI (CCRF-CEM): 5.99 µM | GI50 (CCRF-CEM): 2.38 µM | CC50 (CCRF-CEM): > 100 µM | activity at 10 µM (CCRF-CEM): 11% | GI50 (OVCAR-5): 2.1 µM | IC (TGI) (OVCAR-5): 4.99 µM | CC50 (OVCAR-5): 18.7 µM | activity at 10 µM (OVCAR-5): 72.8% | GI50 (HT29): 1.78 µM | IC (TGI) (HT29): 3.67 µM | CC50 (HT29): 7.56 µM | activity at 10 µM (HT29): 2.24% | GI50 (SK-MEL-5): 1.85 µM | IC (TGI) (SK-MEL-5): 3.5 µM | activity at 10 µM (SK-MEL-5): 52.3% | CC50 (SK-MEL-5): 6.65 µM | GI50 (OVCAR-4): 2.79 µM | IC (TGI) (OVCAR-4): 8.36 µM | CC50 (OVCAR-4): 58.2 µM | activity at 10 µM (OVCAR-4): 42.6% | GI50 (UACC-62): 1.75 µM | activity at 10 µM (UACC-62): -34.4% | CC50 (UACC-62): 7.35 µM | TGI (UACC-62): 3.59 µM | GI50 (HCT-116): 1.86 µM | IC (TGI) (HCT-116): 3.59 µM | LC50 (lethal concentration 50%) (HCT-116): 6.93 µM | activity at 10 µM (HCT-116): 7.67% | GI50 (NCI-H460): 3.46 µM | IC (TGI) (NCI-H460): 11.7 µM | LC50 (concentration causing 50% cell kill) (NCI-H460): 39.1 µM | activity at 10 µM (NCI-H460): 26.1% | GI50 (TK-10; Homo sapiens, TK-10, 5 log dose): 3.19 µM | CC50 (TK-10; Homo sapiens, TK-10, 5 log dose, 48 h, read-out: LC50 (the source's name)): 33.7 µM | activity at 10 µM (TK-10; Homo sapiens): 51.7% | TGI (TK-10; TK-10, 5 log dose): 9.42 µM | GI50 (IGROV1): 3.98 µM | IC (TGI) (IGROV1): 19.5 µM | CC50 (IGROV1): > 100 µM | activity at 10 µM (IGROV1): 62% | GI50 (LOX IMVI): 1.75 µM | CC50 (LOX IMVI): 6.11 µM | IC (TGI) (LOX IMVI): 3.27 µM | activity at 10 µM (LOX IMVI): -27.3% | GI50 (SNB-75): 1.91 µM | IC (TGI) (SNB-75): 5.49 µM | LC50 (concentration killing 50% of cells) (SNB-75): 21.3 µM | activity at 10 µM (SNB-75): 68.1% | GI50 (T-47D): 2.06 µM | IC (TGI) (T-47D): 5.08 µM | activity at 10 µM (T-47D): 8.43% | CC50 (T-47D): 56.4 µM
